Experiment [1] has as its system Eimeria tenella. Description: Anti-coccidial effect of monensin urethanes added to the feed of infected chickens (Table 7). The class given is in vivo. As to conditions: infected untreated control 3.0, less than 2.5 significant. How it is done:
This test utilizes ten chickens per drug group. Ten chickens are employed as a weight control and ten chickens as an infected control. The drug is given 48 hours in advance of the infection. One gm. of the test drug is mixed in a mechanical mixer with a sufficient amount of chicken feed to result in the desired dosage. The infection consists of approximately 200,000 oocysts given orally by pipette. The tests lasts for eleven days and then the surviving birds are autopsied and examined for gross lesions in the ceca. The test birds are rated according to the number of survivors and the number of cecal lesions. The results are expressed as average degree of infection (A.D.I.). An average degree of infection of less than 2.5 is considered to be significant.

Experiment [2] concerns MycoBacterium phiel 355. Description: Minimum Inhibitory Concentration, agarwell diffusion assay (Table 6). The class given is cell-based. As to conditions: Mycobacterium, 355, read-out: Minimum Inhibitory Concentration, MycoBacterium phiel 355. The text has this: (§1) (a) Lowest twofold dilution giving zone of inhibition in the agarwell
(§2) (b) NRRL collection number, all the rest ate ATCC numbers.

The test system of experiment [3] is Streptococcus faecium 8043. Described as above. It is filed as cell-based.
Excerpt: as §1, §2

Experiment [4] deals with Bacillus megaterium 8CU. The experiment is described as above. The class given is cell-based. As to conditions: for MIC: Priestia megaterium, 8CU, read-out: Minimum Inhibitory Concentration, Bacillus megaterium 8CU.
Excerpt: as §1, §2

Experiment [5] concerns Sarcina lutca 9341. The experiment is described as above. As to conditions: Sarcina, 9341, read-out: Minimum Inhibitory Concentration, Sarcina lutca 9341. The class given is cell-based.
Excerpt: as §1, §2

For experiment [6], the system named is Bacillus sp. TA 27860. The description is as above. It is filed as cell-based. As to conditions: for MIC: Bacillus.
Excerpt: as §1, §2

Experiment [7] deals with Streptococcus cellulosac 3313. The experiment is described as above. The class given is cell-based. As to conditions: for MIC: Streptococcus, 3313, read-out: Minimum Inhibitory Concentration, Streptococcus cellulosac 3313.
Excerpt: as §1, §2

Experiment [8] has as its system Bacillus subtilis 583. The description is as above. The class given is cell-based.
Excerpt: as §1, §2

In experiment [9] the test system is Staph. aureus 6538. The experiment is described as above. It is filed as cell-based. As to conditions: for MIC: Staphylococcus aureus, 6538, read-out: Minimum Inhibitory Concentration, Staph. aureus 6538.
Excerpt: as §1, §2

In experiment [10] the test system is Bacillus sp. E 27859. The description is as above. The class given is cell-based. As to conditions: for MIC: Bacillus.
Excerpt: as §1, §2

Experiment [11] relates to Paceilomyces variotl 25820. Described as above. The class given is cell-based. As to conditions: for MIC: read-out: Minimum Inhibitory Concentration, Paceilomyces variotl 25820.
Excerpt: as §1, §2

Experiment [12] relates to Treponema hyodysenteriae. As to the kind of experiment: Activity against Treponema hyodysenteriae (MIC, blood agar plates). It is filed as cell-based. As to conditions: Brachyspira hyodysenteriae, 48 h, 42° C., anaerobic. The text has this:
Testing for activity against Treponema hyodysenteriae, a cause of swine dysentery consisted of inoculation of blood agar plates containing a series of two or fourfold dilutions of the monensin urethane derivatives with tenfold dilutions of the T. hyodysenteriae strain.

In experiment [13] the test system is rumen fluid. As to conditions: 50 ppm; control 100.
A short description of experiment [14]: Oral antihypertensive activity: blood pressure and heart rate (Table 9). The class given is in vivo. The text has this:
Compounds of formula I, and their pharmaceutically acceptable salts are orally active as antihypertensive agents.

[15] abbreviates: Bacillus subtilis, 583, Bacillus subtilis 583 (NRRL), read-out: Minimum Inhibitory Concentration.
Where [16] appears, read: Enterococcus faecium, 8043, Streptococcus faecium 8043, read-out: Minimum Inhibitory Concentration.
Where [17] appears, read: SP.TA27860, Bacillus sp. TA 27860, read-out: Minimum Inhibitory Concentration.
The mark [18] stands for this setting: SP.E27859, Bacillus sp. E 27859, read-out: Minimum Inhibitory Concentration.

Molecules are shown by their SMILES. ≈ marks a conversion by molar mass, not a printed value. Read-outs that look alike come from different tables or passages of the source.

As for `CCC1(C2OC(C3OC(O)(COC(=O)Nc4ccc([N+](=O)[O-])cc4)C(C)CC3C)CC2C)CCC(C2(C)CCC3(CC(O)C(C)C(C(C)C(OC)C(C)C(=O)O)O3)O2)O1` (stereo not drawn) [Monensin A, 4-nitrophenylurethane], the “Average Degree of Infected (A.D.I.)” value in [1] (75 ppm in feed) was 0.5.
Regarding `CCC1(C2OC(C3OC(O)(COC(=O)NC4CCCCC4)C(C)CC3C)CC2C)CCC(C2(C)CCC3(CC(O)C(C)C(C(C)C(OC)C(C)C(=O)O)O3)O2)O1` (stereo not drawn) [Monensin A, cyclohexylurethane], the MIC in [2] was found to be 3.1 µg/mL (≈ 3.89 µM); in [3] (Enterococcus faecium, 8043, read-out: Minimum Inhibitory Concentration, Streptococcus faecium 8043), 0.1 µg/mL (≈ 0.126 µM); in [4], 0.4 µg/mL (≈ 0.502 µM); in experiment [5], 0.8 µg/mL (≈ 1 µM); in experiment [6] (SP.TA27860, read-out: Minimum Inhibitory Concentration, Bacillus sp. TA 27860), 0.6 µg/mL (≈ 0.754 µM); in experiment [7], 3.1 µg/mL (≈ 3.89 µM). For the same molecule, the MIC in [8] (Bacillus subtilis, 583, read-out: Minimum Inhibitory Concentration, Bacillus subtilis 583 (NRRL)) turned out to be 0.8 µg/mL (≈ 1 µM); in [9], 1.6 µg/mL (≈ 2.01 µM); in experiment [10] (SP.E27859, read-out: Minimum Inhibitory Concentration, Bacillus sp. E 27859) it was 0.2 µg/mL (≈ 0.251 µM); in experiment [11] it was 3.1 µg/mL (≈ 3.89 µM); in [12] it was 0.4 µg/mL (≈ 0.502 µM). Also, the “Average Degree of Infected (A.D.I.)” value in [1] (125 ppm in feed) was 0.8.
Consider `COC(C(C)C(=O)O)C(C)C1OC2(CCC(C)(C3CCC(C)(C4OC(C5OC(O)(COC(=O)NC(C)c6ccccc6)C(C)CC5C)CC4C)O3)O2)CC(O)C1C` [Monensin B, (R)-1-phenethylurethane], for which, in experiment [13], the “Rate of Gas Production, Percent Production of Control Fermentations” value is 103.3%. For the same molecule, in experiment [13], the “Total VFA, Percent Production of Control Fermentations” value is 82.7%. Moreover, the MIC in experiment [2] stood at 12.5 µg/mL (≈ 15.5 µM); in experiment [5] it was 3.1 µg/mL (≈ 3.86 µM); in experiment [8] (setting [15]), 1.6 µg/mL (≈ 1.99 µM); in experiment [12] it was 0.4 µg/mL (≈ 0.497 µM). Also, the “Minimum Inhibitory Concentration” value in [3] (Streptococcus faecium 8043, listed as Monensin B,(R)-1-phenethylurethane) is listed as 0.8 meg/ml; in experiment [4] (Bacillus megaterium 8CU, listed as Monensin B,(R)-1-phenethylurethane) it was 1.6 meg/ml; in [6] (Bacillus sp. TA 27860, listed as Monensin B,(R)-1-phenethylurethane), 1.6 meg/ml; in [7] (Streptococcus cellulosac 3313, listed as Monensin B,(R)-1-phenethylurethane), 3.1 meg/ml; in experiment [9] (Staph. aureus 6538, listed as Monensin B,(R)-1-phenethylurethane) it was 6.3 meg/ml; in [10] (Bacillus sp. E 27859, listed as Monensin B,(R)-1-phenethylurethane) it was 0.4 meg/ml. Also, in [11] (Paceilomyces variotl 25820, listed as Monensin B,(R)-1-phenethylurethane), the “Minimum Inhibitory Concentration” value is listed as 3.1 meg/ml.
As to `CCC1(C2OC(C3OC(O)(COC(=O)Nc4ccc(C)cc4)C(C)CC3C)CC2C)CCC(C2(C)CCC3(CC(O)C(C)C(C(C)C(OC)C(C)C(=O)O)O3)O2)O1` (stereo not drawn) [Monensin A, 4-methylphenylurethane, Monensin A, 4-methyl phenylurethane], in [14] (oral dose 1 mg/kg), the “Day of Maximum Change, Blood Pressure” value was 3 days. In addition, in experiment [14] (oral dose 1 mg/kg), the “Day of Maximum Change, Heart Rate” value turned out to be 4 days. For the same molecule, in [14] (oral dose 1 mg/kg), the “Maximum Change (%), Blood Pressure” value came to 16%. In addition, the “Maximum Change (%), Heart Rate” value in [14] (oral dose 1 mg/kg) was found to be 15%. In experiment [14] (oral dose 1 mg/kg), the “Mean Blood Pressure at time of maximum effect” value is recorded as 182 mm Hg. Also, the “Mean Blood Pressure before treatment” value in experiment [14] (oral dose 1 mg/kg) came out at 217 mm Hg. Besides, the MIC in experiment [2] worked out at 1.6 µg/mL (≈ 1.99 µM); in [3] (setting [16]) it was 0.2 µg/mL (≈ 0.249 µM); in experiment [4] it was 0.2 µg/mL (≈ 0.249 µM); in experiment [5], 0.4 µg/mL (≈ 0.497 µM); in [6] (setting [17]), 0.2 µg/mL (≈ 0.249 µM); in [7], 0.8 µg/mL (≈ 0.995 µM). Also, the MIC in [8] (setting [15]) is 0.4 µg/mL (≈ 0.497 µM); in [9] it was 0.4 µg/mL (≈ 0.497 µM); in [10] (setting [18]), 0.05 µg/mL (≈ 0.0622 µM); in [11], 1.6 µg/mL (≈ 1.99 µM). The “Average Degree of Infected (A.D.I.)” value in experiment [1] (75 ppm in feed) was found to be 1.1.
For the molecule `CCC1(C2OC(C3OC(O)(COC(=O)Nc4ccc(F)cc4)C(C)CC3C)CC2C)CCC(C2(C)CCC3(CC(O)C(C)C(C(C)C(OC)C(C)C(=O)O)O3)O2)O1` (stereo not drawn) [Monensin A, 4-fluorophenylurethane], the “Day of Maximum Change, Blood Pressure” value in [14] (oral dose 3 mg/kg) came out at 2 days. In addition, the “Maximum Change (%), Blood Pressure” value in experiment [14] (oral dose 3 mg/kg) is 17%. For the same molecule, in experiment [14] (oral dose 3 mg/kg), the “Mean Blood Pressure at time of maximum effect” value is 182 mm Hg. For the same molecule, the “Mean Blood Pressure before treatment” value in experiment [14] (oral dose 3 mg/kg) worked out at 220 mm Hg. For the same molecule, the MIC amounted to 3.1 µg/mL (≈ 3.84 µM) in experiment [2]; 0.1 µg/mL (≈ 0.124 µM) in [3] (setting [16]); 0.4 µg/mL (≈ 0.495 µM) in [4]; 0.8 µg/mL (≈ 0.99 µM) in experiment [5]; 0.8 µg/mL (≈ 0.99 µM) in experiment [6] (setting [17]); 3.1 µg/mL (≈ 3.84 µM) in [7]. For the same molecule, the MIC in experiment [8] (setting [15]) was found to be 0.8 µg/mL (≈ 0.99 µM); in experiment [9] it was 1.6 µg/mL (≈ 1.98 µM); in experiment [10] (setting [18]), 0.2 µg/mL (≈ 0.248 µM); in experiment [11], 3.1 µg/mL (≈ 3.84 µM); in [12] it was 0.08 µg/mL (≈ 0.099 µM). The “Average Degree of Infected (A.D.I.)” value in experiment [1] (125 ppm in feed) stood at 1.0.
Take `CCC1(C2OC(C3OC(O)(COC(=O)Nc4ccc(I)cc4)C(C)CC3C)CC2C)CCC(C2(C)CCC3(CC(O)C(C)C(C(C)C(OC)C(C)C(=O)O)O3)O2)O1` (stereo not drawn) [Monensin A, 4-iodophenylurethane]: the “Average Degree of Infected (A.D.I.)” value in experiment [1] (125 ppm in feed) turned out to be 0.1.

These data come from US4263427A, “Monensin urethane derivatives” (priority 1979, dated 1981).
